# Results reported in patent US20250340577A1, “BETA-LACTOMASE INHIBITORS AND USES THEREOF” (Case Western Reserve University, priority 2021, published 2025).
# Like-named read-outs stand apart in the source and are kept apart here.
# Tests used:
# E. coli ATCC BAA202 = test: MIC with cefepime, agar microdilution, CLSI; format: cell-based; details: compound fixed at 4 ug/ml; SHV-1
# Protocol: (§1) Minimum inhibitory concentration (MIC) of MB076 and derivatives (PCF_038-043) in combination with cefepime.
# (§2) MICs were determined by the Agar microdilution method, following CLSI guidelines. Compounds were tested at fixed concentration of 4 ug/ml in combination with cefepime.
# [1] = tested on: E. coli DH10B pBC-SK KPC-2; test: MIC with cefepime, agar microdilution, CLSI; format: cell-based; details: compound fixed at 4 ug/ml
# Protocol: as §1, §2
# K. pneumoniae 266 = test: MIC with cefepime, agar microdilution, CLSI; format: cell-based; details: compound fixed at 4 ug/ml; SHV-5
# Protocol: as §1, §2
# K. pneumoniae ST17 = test: MIC with cefepime, agar microdilution, CLSI; format: cell-based; details: compound fixed at 4 ug/ml; KPC-2, TEM, SHV, CTX-M-Group 1
# Protocol: as §1, §2
# [2] = tested on: Klebsiella pneumonia/BAA-1705; test: MIC of MB076 alone or in combination with cefepime or meropenem; format: cell-based; details: Klebsiella pneumoniae, BAA1705; single agent; read-out: MIC
# Protocol: as §2
# [3] = tested on: Klebsiella pneumonia/FDA-CDC AR-BANK#0097; test: as above; format: cell-based; details: Klebsiella pneumoniae; single agent; read-out: MIC
# Protocol: as §2
# [4] = tested on: Klebsiella pneumonia/FDA-CDC AR-BANK#0098; test: as above; format: cell-based; details: Klebsiella pneumoniae; single agent; read-out: MIC
# Protocol: as §2
# [5] = format: in vivo; details: for Abdominal tone / Body weight after 1° dose / Body weight after 4° dose / Limb tone / Vocalization: QID q6h; for Piloerection: animals of 4, after 4° dose; for Vocalization: animals of 4
# Protocol: A maximum tolerable dose (MTD) assessment was conducted to evaluate the tolerability of MB076 with meropenem and cilastatin combination. Neutropenic uninfected female ICR mice were used. Meropenem combined with cilastatin was subcutaneously (SC) administered followed by intravenous (IV) administration of MB076 within 10 min. Doses were administered four times (QID) with 6 h intervals (q6h) for one day. Animals were monitored for acute symptoms after the first dose administration and cage side observations were recorded for the subsequent QID doses. Moreover, the body weight of each animal was recorded daily.
# [6] = Single dose IV PK in plasma and thigh homogenate, thigh infection model; format: in vivo, mice; details: for AUC(0-inf) / AUC(0-t) / C0 / clearance / half-life / Vd: female, ICR, mouse; for Vd: read-out: Vss
# Protocol: (§3) A single dose PK study with MB_076 has been conducted to evaluate antibiotic exposure over time in plasma samples and thigh homogenates following a single dose IV administration in K. pneumoniae AR-BANK #0098 (KPC-2) thigh infection model with neutropenic female ICR mice. Among the PK parameters, t1/2, C0, AUClast, AUCINF, Vss and CL were evaluated (Table 7), while for PD parameters, C0/MIC, AUClast/MIC and T>MIC were calculated (Table 8). In particular, the % time over the minimum inhibitory concentration (T>MIC) was calculated for all dose groups to determine the impact of MB076 efficacy in this animal model. Plots of concentration in plasma and thigh homogenate versus time were created and the linearity of the resulting PK parameters was assessed.
# [7] = tested on: K. pneumoniae AR-BANK #0098 (KPC-2); format: in vivo; details: for T > MIC / Time High / Time Low: female, ICR, mouse, in vivo, iv
# Protocol: as §3
# [8] = MEM 500 mg/Kg + cilastatin 200 mg/Kg (SC) + MB076 25 mg/Kg (IV)
# [9] = MEM 500 mg/Kg + cilastatin 200 mg/Kg (SC) + MB076 50 mg/Kg (IV)
# [10] = MEM 1000 mg/Kg + cilastatin 200 mg/Kg (SC) + MB076 25 mg/Kg (IV)
# [11] = MEM 1000 mg/Kg + cilastatin 200 mg/Kg (SC) + MB076 50 mg/Kg (IV)
# [12] = MEM 1000 mg/Kg + cilastatin 200 mg/Kg (SC) + MB076 100 mg/Kg (IV)
# [13] = plasma, 12.5 mg/kg IV single dose
# [14] = plasma, 25 mg/kg IV single dose
# [15] = plasma, 50 mg/kg IV single dose
# [16] = plasma, 100 mg/kg IV single dose
# [17] = thigh homogenate, 12.5 mg/kg IV single dose
# [18] = thigh homogenate, 25 mg/kg IV single dose
# [19] = thigh homogenate, 50 mg/kg IV single dose
# [20] = thigh homogenate, 100 mg/kg IV single dose
smiles,measurement,setting,value
Nc1nnc(SCC(=O)NC(Cn2cc(C(=O)O)nn2)B(O)O)s1 (centres unmarked) [MB076],MIC of cefepime in combination with compound,E. coli ATCC BAA202,< 0.25 µg/mL
same,MIC of cefepime in combination with compound,[1],< 0.25 µg/mL
same,MIC of cefepime in combination with compound,K. pneumoniae 266,< 0.25 µg/mL
same,MIC of cefepime in combination with compound,K. pneumoniae ST17,16 µg/mL
same,MIC,[2],> 32 µg/mL
same,MIC,[3],> 32 µg/mL
same,MIC,[4],> 32 µg/mL
same,Abdominal tone,[5]; [8],Mild
same,Body weight after 1° dose,[5]; [8],23
same,Body weight after 4° dose,[5]; [8],22
same,Limb tone,[5]; [8],Mild
same,Abdominal tone,[5]; [9],increased
same,Body weight after 1° dose,[5]; [9],23
same,Body weight after 4° dose,[5]; [9],22.2
same,Limb tone,[5]; [9],Mild
same,Abdominal tone,[5]; [10],Mild
same,Body weight after 1° dose,[5]; [10],23.2
same,Body weight after 4° dose,[5]; [10],21.7
same,Limb tone,[5]; [10],Mild
same,Abdominal tone,[5]; [11],Mild
same,Body weight after 1° dose,[5]; [11],23
same,Body weight after 4° dose,[5]; [11],22
same,Limb tone,[5]; [11],Mild
same,Abdominal tone,[5]; [12],Mild
same,Body weight after 1° dose,[5]; [12],23
same,Body weight after 4° dose,[5]; [12],22
same,Limb tone,[5]; [12],increased and Mild
same,Acute toxicity or mortality,"[5]; all tested dose groups, MB076 IV with meropenem + cilastatin SC, QID q6h one day, neutropenic uninfected female ICR mice",No acute toxicity or mortality was observed
same,Piloerection,[5]; [8],4/4 after
same,Piloerection,[5]; [9],4/4 after
same,Piloerection,[5]; [10],4/4 after
same,Piloerection,[5]; [11],4/4 after
same,Piloerection,[5]; [12],4/4 after
same,Vocalization,[5]; [8],1/4
same,Vocalization,[5]; [9],0/4
same,Vocalization,[5]; [10],2/4
same,Vocalization,[5]; [11],3/4
same,Vocalization,[5]; [12],0/4
same,AUC(0-inf),[6]; [13],7200 ng·h/mL
same,AUC(0-t),[6]; [13],7100 ng·h/mL
same,C0,[6]; [13],35.6 µg/mL
same,clearance,[6]; [13],29.1 mL/min/kg
same,half-life,[6]; [13],33.6 min
same,Vd,[6]; [13],0.65 L/kg
same,AUC(0-inf),[6]; [14],17800 ng·h/mL
same,AUC(0-t),[6]; [14],17600 ng·h/mL
same,C0,[6]; [14],84 µg/mL
same,clearance,[6]; [14],23.4 mL/min/kg
same,half-life,[6]; [14],36.6 min
same,Vd,[6]; [14],0.8 L/kg
same,AUC(0-inf),[6]; [15],39100 ng·h/mL
same,AUC(0-t),[6]; [15],39000 ng·h/mL
same,C0,[6]; [15],207 µg/mL
same,clearance,[6]; [15],21.3 mL/min/kg
same,half-life,[6]; [15],25.8 min
same,Vd,[6]; [15],0.35 L/kg
same,AUC(0-inf),[6]; [16],104000 ng·h/mL
same,AUC(0-t),[6]; [16],103000 ng·h/mL
same,C0,[6]; [16],638 µg/mL
same,clearance,[6]; [16],16.1 mL/min/kg
same,half-life,[6]; [16],25.8 min
same,Vd,[6]; [16],0.21 L/kg
same,AUC(0-inf),[6]; [17],1000 ng·h/mL
same,AUC(0-t),[6]; [17],1000 ng·h/mL
same,C0,[6]; [17],6.3 µg/mL
same,half-life,[6]; [17],14.4 min
same,Vd,[6]; [17],2.96 L/kg
same,AUC(0-inf),[6]; [18],1800 ng·h/mL
same,AUC(0-t),[6]; [18],1700 ng·h/mL
same,C0,[6]; [18],17 µg/mL
same,half-life,[6]; [18],6.6 min
same,Vd,[6]; [18],1.38 L/kg
same,AUC(0-inf),[6]; [19],6300 ng·h/mL
same,AUC(0-t),[6]; [19],6300 ng·h/mL
same,C0,[6]; [19],34 µg/mL
same,half-life,[6]; [19],12.6 min
same,Vd,[6]; [19],1.76 L/kg
same,AUC(0-inf),[6]; [20],17300 ng·h/mL
same,AUC(0-t),[6]; [20],17200 ng·h/mL
same,C0,[6]; [20],108 µg/mL
same,half-life,[6]; [20],15 min
same,Vd,[6]; [20],1.07 L/kg
same,Linearity of C0 and AUClast with dose,"[6]; plasma and thigh homogenates, 12.5-100 mg/kg IV",correlated linearly with dose
same,T > MIC,[7]; 12.5 mg/kg,1.69%
same,Time High,[7]; 12.5 mg/kg,0.40 h
same,Time Low,[7]; 12.5 mg/kg,23.60 h
same,T > MIC,"[7]; 12.5 mg/kg, 24 h",0.24%
same,Time High,"[7]; 12.5 mg/kg, 24 h",0.06 h
same,Time Low,"[7]; 12.5 mg/kg, 24 h",23.94 h
same,T > MIC,[7]; 50 mg/kg,1.75%
same,Time High,[7]; 50 mg/kg,0.42 h
same,T > MIC,"[7]; 50 mg/kg, 24 h",3.89%
same,Time High,"[7]; 50 mg/kg, 24 h",0.93 h
same,T > MIC,[7]; 100 mg/kg,2.72%
same,Time High,[7]; 100 mg/kg,0.65 h
same,Time Low,[7]; 100 mg/kg,23.35 h
same,T > MIC,"[7]; 100 mg/kg, 24 h",4.51%
same,Time High,"[7]; 100 mg/kg, 24 h",1.08 h
same,Time Low,"[7]; 100 mg/kg, 24 h",22.92 h
same,AUClast/MIC,"[7]; plasma, 12.5 mg/kg IV",1.77 h
same,AUClast/MIC,"[7]; plasma, 25 mg/kg IV",4.41 h
same,AUClast/MIC,"[7]; plasma, 50 mg/kg IV",9.75 h
same,AUClast/MIC,"[7]; plasma, 100 mg/kg IV",25.81 h
same,AUClast/MIC,"[7]; thigh, 12.5 mg/kg IV",0.25 h
same,AUClast/MIC,"[7]; thigh, 25 mg/kg IV",0.43 h
same,AUClast/MIC,"[7]; thigh, 50 mg/kg IV",1.56 h
same,AUClast/MIC,"[7]; thigh, 100 mg/kg IV",4.30 h
